According to patent US20210115401A1, “Methods and Materials for the Generation of Regulatory T Cells” (LIFE TECHNLOGIES AS, priority 2006, published 2021):

System: CD4+ T cells
Assay: Surface marker (CD4, CD25, CXCR3) and intracellular FOXP3 analysis of expanded CD4+ T cells
Format: cell-based
Protocol: 1) Isolate CD4+ T cells from peripheral blood or leukopheresis products by the use of Dynal® CD4 Positive isolation kit, Dynal® CD4 Negative Isolation kit, Dynabeads® MyPure™ CD4 T cell kit, or CD4 Microbeads MACS®.
2) Stimulate 1.5×10^6 CD4+ T cells with anti-CD3/CD28 Dynabeads (3:1 bead: T cell ratio) in X-vivo medium with 1000 U/ml IL-4 (optional), 20 U/ml IL-2 and 1 μM final concentration of Rapamycin. Total medium volume should be 1.5 ml per 1.5×10^6 CD4+ T cells in a 24 well plate. The protocol can be scaled up.
3) On day 2, add a 10× concentrate that contains 10,000 U/ml IL-4 (optional) and […]. Add this in a volume that is 10% of the initial culture volume.
4) On day 4, add the cytokine concentrate similar to day 2.
5) On day 6, add the 10× cytokine concentrate again and take an aliquot to count the cells. This is the first time that the culture should be disturbed. Based on the count adjust the cell concentration to 1×10^6 CD4 cell/ml. Split wells and add culture medium containing Rapamycin, 1000 U/ml IL-4 (optional), 20 U/ml IL-2 to maintain cell concentration at 0.5×10^6 cells/ml.
6) From day 7 to day 12 count the cells daily. Split wells and add culture medium containing Rapamycin, 1000 U/ml IL-4 (optional), 20 U/ml IL-2 to maintain the cell concentration at 0.5×10^6 cells/ml. On day 12 the beads are removed using a magnet.
7) On day 14-15 the cells can be analyzed for surface marker expression and functional properties.
CD4+ T cells were isolated from peripheral blood by negative and/or positive isolation as described in Example 1. After expansion with IL-2, +/−IL-4, CD3/CD28 Dynabeads®, with or without Rapamycin the expanded cells were analyzed for various surface markers (CD4, CD25, CD62L, CRTh2, CCR4, CXCR3, CCR7) and for intracellular FOXP3 expression and cytokine secretion. Suppressive capacity was analyzed in standard functional assays as described below.

SMILES: CO[C@H]1C[C@@H]2CC[C@@H](C)[C@@](O)(O2)C(=O)C(=O)N2CCCC[C@H]2C(=O)O[C@H]([C@H](C)C[C@@H]2CC[C@@H](O)[C@H](OC)C2)CC(=O)[C@H](C)/C=C(\C)[C@@H](O)[C@@H](OC)C(=O)[C@H](C)C[C@H](C)/C=C/C=C/C=C/1C [Rapamycin]
- expanded cells expressing high levels of CD25 (CD4+ T cells expanded with CD3/CD28 Dynabeads, IL-2, +/−IL-4 and Rapamycin): Approximately 70%
- CD4+CD25+ T cells among expanded cells (flow cytometry, FIG. 2) (CD4+ T cells expanded with rapamycin, 20% in the absence of rapamycin): 80%
- cells expressing FOXP3 after expansion (after expansion with or without Rapamycin, freshly isolated CD4+ T cells 10%): 10%
